Experimental data from US20080210174A1, “Increasing the Protein Concentration of Animal Organisms” (BASF AKTIENGESELLSCHAFT, priority 2004, published 2008).

Assays:
[1] = test system: mice (type CD-1M (ICR) BR); test: Feeding experiment in mice: whole body crude protein, crude fat, P/F quotient, feed intake, weight gain; type: in vivo; conditions: 21 days; for Body fat / Body protein / P/F quotient: mice
Protocol: 1. Determination of Whole Body Crude Protein • 1) Method for determining the content of crude protein in mice from the nitrogen content, modified according to Kjeldahl (Kjeldahl, J.: Z. anal. Chem. 22, 366-382. 1883). • 2) Principle • The experimental animals were slaughtered and after removing the gastrointestinal tract, the weight of the animals was determined by weighing. The experimental animals were then shock-frozen in liquid nitrogen and homogenized. The resultant samples were subjected to wet digestion. The acidic digest was made alkaline with sodium hydroxide solution. The ammonia released was removed by distillation and collected in a defined amount of sulfuric acid, the excess of which was titrated with sodium hydroxide solution. • 3) Reagents • 3.1) Potassium sulfate, analytical grade • 3.2) Catalyst: copper(II) oxide, CuO, analytical grade, or crystalline copper sulfate, CuSO4.5H2O, analytical grade, or mercury, or mercury oxide, HgO, analytical grade. • 3.3) Sulfuric acid; analytical grade, D 1.84 • 3.4) Pumice stone, granulated, washed with hydrochloric acid and ignited • 3.5) Zinc, analytical grade, granulated • 3.6) Sulfuric acid, 0.1 N; • 3.7) Sulfuric acid, 0.5 N • 3.8) Methyl red indicator: 300 mg of methyl red are dissolved in 100 ml of ethanol, from 94 to 96% strength (VN). • 3.9) Sodium hydroxide solution, analytical grade, 40% strength (WN) • 3.10) Sodium sulfide solution, analytical grade, saturated • 3.11) Sodium thiosulfate solution, 8% strength (WN), Na2S2O3.5H2O, analytical grade • 3.12) Sodium hydroxide solution, 0.1 N; • 3.13) Sodium hydroxide solution, 0.25 N • 4) Apparatus • Digestion apparatus and distillation apparatus according to Kjeldahl (see above); • 5) Digestion • 1 g of the sample was weighed out accurately to 1 mg and placed in the flask of the digestion apparatus. 10 g of potassium sulfate […], a suitable amount of the catalyst (3.2) (from 0.3 to 0.4 g of copper oxide or from 0.9 to 1.2 g of copper sulfate or one drop of mercury or from 0.6 to 0.7 g of mercury oxide), 25 ml of sulfuric acid (3.3) and a few grains of pumice (3.4) were added and the flask contents were mixed. The flask was first heated moderately, then, with shaking from time to time, heated up to carbonization of the substance and disappearance of the foam, and finally intensively up to the uniform boiling of the liquid. Superheating of the flask walls and deposition of organic parts onto the flask walls was avoided. As soon as the solution was clear and colorless (light green when a copper-containing catalyst is used), this was kept boiling for a further 1 hour; thereafter it was allowed to cool. • 6) Distillation • With continuous swirling, from 250 to 356 ml of water were added with care, in which case the sulfates should dissolve completely. The mixture was allowed to cool; then some zinc granules (3.5) were added. Between 10 ml and 25 ml of sulfuric acid (3.6) or (3.7), depending on the expected nitrogen content, and a few drops of methyl red indicator (3.8) were added to the distillation apparatus collection flask. The flask was connected to the condenser of the distillation apparatus and its outermost end was lowered at least 1 cm deep into the liquid of the collection flask. 100 ml of sodium hydroxide solution (3.9) were slowly charged via the stopcock funnel into the distillation flask. When a mercury catalyst is used, in addition, 10 ml of sodium sulfide solution (3.10) or 25 ml of sodium thiosulfate solution (3.11) were added to the distillation flask. The flask is heated in such a manner that, in 30 min, about 150 ml of the liquid had distilled off. After the expiry of this time, the neutral reaction of the overhead distillate was controlled using litmus paper. If the reaction was alkaline, the distillation was continued. […] During the distillation operation, the contents of the collection flask were swirled from time to time and its color was observed. […]

[2] = test system: conversion of carbohydrates to fatty acids; conditions: rats on a low-fat, carbohydrate-rich diet; cited from earlier work
[3] = molecular target: T1, human cytosol malate enzyme (Homo sapiens, UniProt P48163); conditions: cited from earlier work
T1 sequence (P48163 1-572): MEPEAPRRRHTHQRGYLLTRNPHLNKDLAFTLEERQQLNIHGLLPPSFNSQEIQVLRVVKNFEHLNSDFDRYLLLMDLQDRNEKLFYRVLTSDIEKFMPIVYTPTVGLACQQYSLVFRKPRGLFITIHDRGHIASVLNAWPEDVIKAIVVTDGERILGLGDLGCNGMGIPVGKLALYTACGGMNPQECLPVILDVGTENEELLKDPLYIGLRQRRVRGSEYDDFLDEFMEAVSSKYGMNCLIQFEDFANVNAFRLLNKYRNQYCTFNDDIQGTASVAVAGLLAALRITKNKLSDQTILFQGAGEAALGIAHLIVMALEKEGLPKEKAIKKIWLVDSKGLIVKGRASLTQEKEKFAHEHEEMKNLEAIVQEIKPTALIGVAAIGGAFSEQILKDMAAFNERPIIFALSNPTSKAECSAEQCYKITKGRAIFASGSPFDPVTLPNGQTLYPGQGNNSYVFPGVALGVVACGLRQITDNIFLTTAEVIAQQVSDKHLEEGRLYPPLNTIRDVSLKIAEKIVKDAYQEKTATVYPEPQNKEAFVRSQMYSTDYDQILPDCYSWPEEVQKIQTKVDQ

[4] = molecular target: human mitochondrial malate enzyme (Homo sapiens, UniProt P23368); conditions: cited from earlier work
Chain of human mitochondrial malate enzyme (P23368 19-584): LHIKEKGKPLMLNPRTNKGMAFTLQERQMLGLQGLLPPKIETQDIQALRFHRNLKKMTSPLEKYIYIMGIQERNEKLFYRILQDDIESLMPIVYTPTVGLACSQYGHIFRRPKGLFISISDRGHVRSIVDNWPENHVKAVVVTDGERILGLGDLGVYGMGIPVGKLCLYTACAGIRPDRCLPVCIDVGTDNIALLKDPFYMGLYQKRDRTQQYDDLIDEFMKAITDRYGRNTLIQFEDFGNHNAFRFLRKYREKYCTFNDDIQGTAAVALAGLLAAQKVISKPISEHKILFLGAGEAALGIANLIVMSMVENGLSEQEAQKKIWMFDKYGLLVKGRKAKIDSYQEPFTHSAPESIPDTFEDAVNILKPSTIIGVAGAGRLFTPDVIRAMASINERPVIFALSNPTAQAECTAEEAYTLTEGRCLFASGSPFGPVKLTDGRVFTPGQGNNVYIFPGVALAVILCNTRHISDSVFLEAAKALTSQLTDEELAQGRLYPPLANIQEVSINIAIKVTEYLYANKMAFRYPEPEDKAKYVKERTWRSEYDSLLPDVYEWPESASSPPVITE

malate enzyme = malate enzyme from Mucor circinelloides; cited from earlier work
malate dehydrogenase = malate dehydrogenase from Mucor circinelloides; cited from earlier work
ATP:citrate lyase = ATP:citrate lyase from Mucor circinelloides; cited from earlier work
Mucor circinelloides = conditions: fungus Mucor circinelloides; cited from earlier work
[5] = animals fed with tartronic acid (0.25% and 0.75% of feed) vs control

**Q.** Which results are given for O=C(O)C(O)C(=O)O [Tartronic acid, tartronic acid]?
**A.** Body fat ([1]; 0.25% by weight of the feed): 20.25 % by weight of body weight; Body protein ([1]; 0.25% by weight of the feed): 65.93 % by weight of body weight; P/F quotient ([1]; 0.25% by weight of the feed): 3.53; Body fat ([1]; 0.75% by weight of the feed): 20.65 % by weight of body weight; Body protein ([1]; 0.75% by weight of the feed): 66.04 % by weight of body weight; P/F quotient ([1]; 0.75% by weight of the feed): 3.28; P/F quotient, change [1, 5]: increase in the P/F quotient; PPTW (percentage protein of total weight), change [1, 5]: increase in the PPTW; effect on conversion of carbohydrates to fatty acids [2]: inhibits the conversion of carbohydrates to fatty acids; inhibitory activity on enzyme [3]: direct inhibitory activity; inhibitory activity on enzyme [4]: direct inhibitory activity; inhibitory activity on enzyme (malate enzyme): direct inhibitory activity; inhibitory activity on enzyme (malate dehydrogenase): direct inhibitory activity; inhibitory activity on enzyme (ATP:citrate lyase): direct inhibitory activity; in vivo inhibitory activity, effect on lipid metabolism (Mucor circinelloides): not sufficient to have a detectable effect on lipid metabolism
